Measured values from US20250353863A1, “TRICYCLIC SPIROLACTAM COMPOUNDS WITH ANTIMYCOBACTERIAL ACTIVITY” (priority 2022, published 2025).
Values after ≈ are worked out from the molar mass of the structure shown. Read-outs that look alike come from different tables or passages of the source.

Test system: Mtb H37Rv-WT
Test: MIC by resazurin microtiter assay (REMA) against Mtb
Type: cell-based
Details: Mycobacterium tuberculosis, REMA
[1] = 144 h, 37° C., 6 days, read-out: MIC (μM) H37Rv-WT

Structure (SMILES) | MIC (read-out: MIC M. tuberculosis) | MIC [1]
CC(C)[C@H]1CO[C@]23CCN(CCc4ccc(C(F)(F)F)cc4)C[C@H]2CCC(=O)N13 [Example 38, (3S,7aR,11aR)-3-isopropyl-9-[2-[4-(trifluoromethyl)phenyl]ethyl]-2,3,67,7a,8,10,11-octahydrooxazolo[2,3-j][1,6]naphthyridin-5-one] | < 1 µM | 
CC(C)[C@H]1CO[C@]23CCN(Cc4cc(C5CC5)nc5ccccc45)C[C@H]2CCC(=O)N13 [Example 24, (3S,7aR,11aR)-9-[(2-cyclopropyl-4-quinolyl)methyl]-3-isopropyl-2,3,6,7,7a,8,10,11-octahydrooxazolo[2,3-j][1,6]naphthyridin-5-one] | < 1 µM | 
C=CC[C@@H]1C[C@@H]2CN(Cc3ccc(C(F)(F)F)cc3)CC[C@@]23OC[C@H](C(C)C)N3C1=O [(3S,6R,7aR,11aR)-6-allyl-3-isopropyl-9-[[4-(trifluoromethyl)phenyl]methyl]-2,3,6,7,7a,8,10,11-octahydrooxazolo[2,3-j][1,6]naphthyridin-5-one] |  | 1 to 10 µM (≈ 0.437 to 4.37 µg/mL)
CC(C)[C@H]1CO[C@]23CCN(Cc4ccc5ncccc5c4)C[C@H]2CCC(=O)N13 [(3S,7aR,11aR)-3-isopropyl-9-(6-quinolylmethyl)-2,3,6,7,7a,8,10,11-octahydrooxazolo[2,3-j][1,6]naphthyridin-5-one] |  | 1 to 10 µM (≈ 0.38 to 3.8 µg/mL)
CC(C)[C@H]1CO[C@]23CCN(Cc4cc(C5CC5)nc5ccccc45)C[C@H]2CCC(=O)N13 [(3S,7aR,11aR)-9-[(2-cyclopropyl-4-quinolyl)methyl]-3-isopropyl-2,3,6,7,7a,8,10,11-octahydrooxazolo[2,3-j][1,6]naphthyridin-5-one] |  | < 1 µM
CC(C)[C@H]1CO[C@]23CC[C@H](NCc4ccc(C(F)(F)F)cc4)C[C@H]2CCC(=O)N13 |  | < 1 µM
CC(C)[C@H]1CO[C@]23CC(=O)N(Cc4ccc(C(F)(F)F)cc4)C[C@H]2CCC(=O)N13 [(3S,7aR,11aR)-3-isopropyl-9-[[4-(trifluoromethyl)phenyl]methyl]-3,6,7,7a,8,11-hexahydro-2H-oxazolo[2,3-j][1,6]naphthyridine-5,10-dione] |  | > 10 µM
C=CC[C@H]1C[C@@H]2CN(Cc3ccc(C(F)(F)F)cc3)CC[C@@]23OC[C@H](C(C)C)N3C1=O [(3S,6S,7aR,11aR)-6-allyl-3-isopropyl-9-[[4-(trifluoromethyl)phenyl]methyl]-2,3,6,7,7a,8,10,11-octahydrooxazolo[2,3-j][1,6]naphthyridin-5-one] |  | > 10 µM
CC(C)[C@H]1CO[C@]23CCN(CCCc4ccc(C(F)(F)F)cc4)C[C@H]2CCC(=O)N13 [(3S,7aR,11aR)-3-isopropyl-9-[3-[4-(trifluoromethyl)phenyl]propyl]-2,3,6,7,7a,8,10,11-octahydrooxazolo[2,3-j][1,6]naphthyridin-5-one] |  | < 1 µM
CC(C)[C@H]1CO[C@]23CCN(S(=O)(=O)Cc4ccc(C(F)(F)F)cc4)C[C@H]2CCC(=O)N13 |  | < 1 µM
CC(C)[C@H]1CO[C@]23CCN(S(=O)(=O)CCCc4ccc(C(F)(F)F)cc4)C[C@H]2CCC(=O)N13 |  | < 1 µM
O=C1CC[C@@H]2CN(Cc3ccccc3)CC[C@@]23N[C@H]2CCCC[C@@H]2N13 [(1S,6R,11S,16S)-4-benzyl-4,10,17-triazatetracyclo[8.7.0.01,6.011,16] heptadecan-9-one] |  | > 10 µM
CC(C)[C@H]1CO[C@]23CCN(Cc4ccc(C(F)(F)F)cc4)C[C@H]2C[C@H](C)C(=O)N13 (single isomer, unassigned) |  | 1 to 10 µM (≈ 0.41 to 4.1 µg/mL)
CC(C)[C@H]1CO[C@]23CCN(S(=O)(=O)CCc4ccc(C(F)(F)F)cc4)C[C@H]2CCC(=O)N13 [(3S,7aR,11aR)-3-isopropyl-9-[2-[4-(trifluoromethyl)phenyl]ethylsulfonyl]-2,3,6,7,7a,8,10,11-octahydrooxazolo[2,3-j][1,6]naphthyridin-5-one] |  | < 1 µM
CC(C)[C@H]1CO[C@]23CCN(C(=O)OCCc4ccc(C(F)(F)F)cc4)C[C@H]2CCC(=O)N13 |  | 1 to 10 µM (≈ 0.454 to 4.54 µg/mL)
